In ChEMBL document CHEMBL4033658, “Design and expeditious synthesis of organosilanes as potent antivirals targeting multidrug-resistant influenza A viruses” (Eur J Med Chem, 2017) one finds inhibition data, which are given here for seven molecules.

In this assay the test system is Influenza A virus. As to the kind of experiment: Inhibition of Influenza A virus AM2-S31N mutant proton channel expressed in Xenopus laevis frog oocytes at 100 uM after 2 mins by electrophysiological two-electrode voltage clamp assay. Type of assay: cell-based.
As to `CC(C)(C)c1ccc(CNC23CC4CC(CC(C4)C2)C3)cc1`, the inhibition (as a rule, the percentage by which the read-out fell short of the control) was 72.6%.

For the molecule `C[Si](C)(C)c1ccc(CNC23CC4CC(CC(C4)C2)C3)cc1`, the inhibition worked out at 77.5%.

The molecule `C[Si](C)(C)c1ccc(CNC23CC4CC(CC(C4)C2)C3)nc1` had an inhibition of 81.3%.

Regarding `C[Si](C)(c1ccccc1)c1ccc(CNC23CC4CC(CC(O)(C4)C2)C3)cc1`, the inhibition worked out at 84.9%.

As to `CC(C)(C)c1ccc(CNC23CC4CC(CC(O)(C4)C2)C3)cc1`, the inhibition worked out at 75.4%.

For `CC(C)[Si](c1ccc(CNC23CC4CC(CC(O)(C4)C2)C3)cc1)(C(C)C)C(C)C`, the inhibition came to 33.6%.

In the case of `C[Si](C)(C)c1ccc(CNC23CC4CC(CC(O)(C4)C2)C3)cc1`, the inhibition is 86.7%.
